Experimental data taken from patent publication US9556190B2, “Piperidinyloxy lactone orexin receptor antagonists” (MERCK SHARP & DOHME CORP., priority 2013, dated 2017).
pIC50: −log10 of the molar value.

Legend:
human orexin-2 receptor = human orexin-2 receptor (Homo sapiens (Human), UniProt O43614); experiment: FLIPR Ca2+ Flux Assay, CHO cells expressing orexin-2 receptor; assay type: cell-based; settings: 70 pM Ala-6,12 orexin-A agonist, read-out: hOX2R FLIPR IC50
Experimental: The utility of the compounds in accordance with the present invention as orexin receptor OX1R and/or OX2R antagonists may be readily determined without undue experimentation by methodology well known in the art, including the “FLIPR Ca^2+ Flux Assay” (Okumura et al., Biochem. Biophys. Res. Comm. 280:976-981, 2001). In a typical experiment the OX1 and OX2 receptor antagonistic activity of the compounds of the present invention was determined in accordance with the following experimental method. For intracellular calcium measurements, Chinese hamster ovary (CHO) cells expressing the rat orexin-1 receptor or the human orexin-2 receptor, are grown in Iscove's modified DMEM containing 2 mM L-glutamine, […], 1% hypoxanthine-thymidine supplement, 100 U/ml penicillin, 100 μg/ml streptomycin and 10% heat-inactivated fetal calf serum (FCS). The cells are seeded at 20,000 cells/well into Becton-Dickinson black 384-well clear bottom sterile plates coated with poly-D-lysine. All reagents were from GIBCO-Invitrogen Corp. The seeded plates are incubated overnight at 37° C. and 5% CO2. Ala-6,12 human orexin-A as the agonist is prepared as a 1 mM stock solution in 1% bovine serum albumin (BSA) and diluted in assay buffer (HBSS containing 20 mM HEPES, 0.1% BSA and 2.5 mM probenecid, pH7.4) for use in the assay at a final concentration of 70 pM. Test compounds are prepared as 10 mM stock solution in DMSO, then diluted in 384-well plates, first in DMSO, then assay buffer. On the day of the assay, cells are washed 3 times with 100 μl assay buffer and then incubated for 60 min (37° C., 5% CO2) in 60 μl assay buffer containing 1 μM Fluo-4AM ester, 0.02% pluronic acid, and 1% BSA. The dye loading solution is then aspirated and cells are washed 3 times with 100 μl assay buffer. 30 μl of that same buffer is left in each well. Within the Fluorescent Imaging Plate Reader (FLIPR, Molecular Devices), test compounds are added to the plate in a volume of 25 μl, incubated for 5 min and finally 25 μl of agonist is added. Fluorescence is measured for each well at 1 second intervals for 5 minutes and the height of each fluorescence peak is compared to the height of the fluorescence peak induced by 70 pM Ala-6,12 orexin-A with buffer in place of antagonist. For each antagonist, IC50 value (the concentration of compound needed to inhibit 50% of the agonist response) is determined. Alternatively, compound potency can be assessed by a radioligand binding assay (described in Bergman et. al. Bioorg. Med. Chem. Lett. 2008, 18, 1425-1430) in which the inhibition constant (Ki) is determined in membranes prepared from CHO cells expressing either the OX1 or OX2 receptor. The intrinsic orexin receptor antagonist activity of a compound which may be used in the present invention may be determined by these assays.

hOX1R = hOX1R (Homo sapiens, UniProt O43613); experiment: FLIPR Ca2+ Flux Assay, CHO cells expressing orexin-1 receptor; assay type: cell-based; settings: 70 pM Ala-6,12 orexin-A agonist

Sequence of human orexin-2 receptor (O43614 whole entry): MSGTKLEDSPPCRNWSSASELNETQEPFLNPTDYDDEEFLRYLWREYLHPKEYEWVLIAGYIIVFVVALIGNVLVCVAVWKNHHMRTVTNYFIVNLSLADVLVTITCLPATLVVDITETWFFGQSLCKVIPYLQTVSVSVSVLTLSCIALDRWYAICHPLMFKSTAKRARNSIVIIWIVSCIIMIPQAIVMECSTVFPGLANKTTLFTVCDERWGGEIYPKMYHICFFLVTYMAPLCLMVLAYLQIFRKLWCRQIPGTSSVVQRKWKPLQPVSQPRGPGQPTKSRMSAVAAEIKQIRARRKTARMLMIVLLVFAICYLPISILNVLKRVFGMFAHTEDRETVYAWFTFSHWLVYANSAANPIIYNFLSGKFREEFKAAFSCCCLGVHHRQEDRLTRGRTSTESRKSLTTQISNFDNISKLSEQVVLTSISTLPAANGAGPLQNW

| SMILES | pIC50 (human orexin-2 receptor) | pIC50 (hOX1R) |
| --- | --- | --- |
| C[C@@H]1CC[C@@H](Oc2cccc3c2C(=O)OC3(C)C)CN1C(=O)c1ccccc1-n1nccn1 [Example 38, 3,3-Dimethyl-7-{[(3R,6R)-6-methyl-1-{[2-(2H-1,2,3-triazol-2-yl)phenyl]carbonyl}piperidin-3-yl]oxy}-2-benzofuran-1(3H)-one] | 6.77 | 5.00 |
| Cc1ccc(-n2nccn2)c(C(=O)N2C[C@H](Oc3nccc4c3C(=O)OC4(C)C)CC[C@H]2C)c1 [Example 5, 1,1-dimethyl-4-{[(3R,6R)-6-methyl-1-{[5-methyl-2-(2H-1,2,3-triazol-2-yl)phenyl]carbonyl}piperidin-3-yl]oxy}furo[3,4-c]pyridin-3(1H)-one] | 7.27 | 5.60 |
| C[C@@H]1CC[C@@H](Oc2nccc3c2C(=O)OC3(C)C)CN1C(=O)c1ccsc1-c1ncccn1 [Example 25, 1,1-dimethyl-4-(((3R,6R)-6-methyl-1-(2-(pyrimidin-2-yl)thiophene-3-carbonyl)piperidin-3-yl)oxy)furo[3,4-c]pyridin-3(1H)-one] | 7.36 | 5.04 |
| Cc1cccc(C(=O)N2C[C@H](Oc3nccc4c3C(=O)OC4(C)C)CC[C@H]2C)c1-n1nccn1 [Example 8, 1,1-dimethyl-4-{[(3R,6R)-6-methyl-1-{[3-methyl-2-(2H-1,2,3-triazol-2-yl)phenyl]carbonyl}piperidin-3-yl]oxy}furo[3,4-c]pyridin-3(1H)-one] | 7.37 | 5.51 |
| C[C@@H]1CC[C@@H](Oc2nccc3c2C(=O)OC3(C)C)CN1C(=O)c1cc(F)ccc1-c1ncccn1 [Example 24, 4-({(3R,6R)-1-[(5-fluoro-2-pyrimidin-2-ylphenyl)carbonyl]-6-methylpiperidin-3-yl}oxy)-1,1-dimethylfuro[3,4-c]pyridin-3(1H)-one] | 7.14 | 5.00 |
| C[C@@H]1CC[C@@H](Oc2nccc3c2COC3=O)CN1C(=O)c1ccsc1-c1ncccn1 [Example 37, 4-({(3R,6R)-6-methyl-1-[(2-pyrimidin-2-ylthiophen-3-yl)carbonyl]piperidin-3-yl}oxy)furo[3,4-c]pyridin-1(3H)-one] | 7.57 | 5.21 |
| C[C@@H]1CC[C@@H](Oc2nccc3c2COC3=O)CN1C(=O)c1ccccc1-n1nccn1 [Example 28, 4-{[(3R,6R)-6-Methyl-1-{[2-(2H-1,2,3-triazol-2-yl)phenyl]carbonyl}piperidin-3-yl]oxy}furo[3,4-c]pyridin-1(3H)-one] | 7.80 | 5.33 |
| Cc1noc(-c2ccc(F)cc2C(=O)N2C[C@H](Oc3nccc4c3C(=O)OC4(C)C)CC[C@H]2C)n1 [Example 18, 4-{[(3R,6R)-1-{[5-fluoro-2-(3-methyl-1,2,4-oxadiazol-5-yl)phenyl]carbonyl}-6-methylpiperidin-3-yl]oxy}-1,1-dimethylfuro[3,4-c]pyridin-3(1H)-one] | 7.05 | 5.00 |
| C[C@@H]1CC[C@@H](Oc2nccc3c2C(=O)OC3(C)C)CN1C(=O)c1ccccc1-n1ncnn1 [Example 21, 1,1-Dimethyl-4-{[(3R,6R)-6-methyl-1-{[2-(2H-tetrazol-2-yl)phenyl]carbonyl}piperidin-3-yl]oxy}furo[3,4-c]pyridin-3(1H)-one] | 6.96 | 5.00 |
| C[C@@H]1CC[C@@H](Oc2nccc3c2COC3=O)CN1C(=O)c1ccccc1-n1ncnn1 [Example 34, 4-{[(3R,6R)-6-methyl-1-{[2-(2H-tetrazol-2-yl)phenyl]carbonyl}-piperidin-3-yl]oxy}-furo[3,4-c]pyridin-1(3H)-one] | 7.52 | 5.00 |
| C[C@@H]1CC[C@@H](Oc2nccc3c2C(=O)OC3(C)C)CN1C(=O)c1ccccc1-n1nccn1 [Example 1, 1,1-Dimethyl-4-{[(3R,6R)-6-methyl-1-{[2-(2H-1,2,3-triazol-2-yl)phenyl]carbonyl}piperidin-3-yl]oxy}furo[3,4-c]pyridin-3(1H)-one] | 7.70 | 5.08 |
| C[C@@H]1CC[C@@H](Nc2nccc3c2C(=O)OC3)CN1C(=O)c1ccccc1-n1nccn1 [Example 40, 4-{[(3R,6R)-6-Methyl-1-{[2-(2H-1,2,3-triazol-2-yl)phenyl]carbonyl}piperidin-3-yl]amino}furo[3,4-c]pyridin-3(1H)-one] | 6.87 | 5.00 |
| C[C@@H]1CC[C@@H](Nc2nccc3c2C(=O)OC3(C)C)CN1C(=O)c1ccccc1-c1ncccn1 [Example 42, 1,1-dimethyl-4-({(3R,6R)-6-methyl-1-[(2-pyrimidin-2-ylphenyl)carbonyl]-piperidin-3-yl}amino)furo[3,4-c]pyridin-3(1H)-one] | 7.59 | 5.54 |
| Cc1noc(-c2cccc(F)c2C(=O)N2C[C@H](Oc3nccc4c3C(=O)OC4(C)C)CC[C@H]2C)n1 [Example 17, 4-{[(3R,6R)-1-{[2-fluoro-6-(3-methyl-1,2,4-oxadiazol-5-yl)phenyl]carbonyl}-6-methylpiperidin-3-yl]oxy}-1,1-dimethylfuro[3,4-c]pyridin-3(1H)-one] | 6.99 | 5.00 |
| C[C@@H]1CC[C@@H](Nc2nccc3c2C(=O)O[C@@H]3C)CN1C(=O)c1ccccc1-n1nccn1 [Example 47, (1R)-1-methyl-4-{[(3R,6R)-6-methyl-1-{[2-(2H-1,2,3-triazol-2-yl)phenyl]carbonyl}piperidin-3-yl]amino}furo[3,4-c]pyridin-3(1H)-one] | 7.46 | 5.14 |
| Cc1nc(-c2ccc(F)cc2C(=O)N2C[C@H](Oc3nccc4c3C(=O)OC4(C)C)CC[C@H]2C)no1 [Example 14, 4-{[(3R,6R)-1-{[5-fluoro-2-(5-methyl-1,2,4-oxadiazol-3-yl)phenyl]carbonyl}-6-methylpiperidin-3-yl]oxy}-1,1-dimethylfuro[3,4-c]pyridin-3(1H)-one] | 7.12 | 5.00 |
| Cc1noc(-c2cc(F)ccc2C(=O)N2C[C@H](Oc3nccc4c3C(=O)OC4(C)C)CC[C@H]2C)n1 [Example 19, 4-{[(3R,6R)-1-{[4-fluoro-2-(3-methyl-1,2,4-oxadiazol-5-yl)phenyl]carbonyl}-6-methylpiperidin-3-yl]oxy}-1,1-dimethylfuro[3,4-c]pyridin-3(1H)-one] | 6.42 | 5.00 |
| C[C@@H]1CC[C@@H](Oc2nccc3c2C(=O)OC3(C)C)CN1C(=O)c1c(F)cccc1-c1ncccn1 [Example 26, 4-({(3R,6R)-1-[(2-fluoro-6-pyrimidin-2-ylphenyl)carbonyl]-6-methylpiperidin-3-yl}oxy)-1,1-dimethylfuro[3,4-c]pyridin-3(1H)-one] | 6.96 | 5.00 |
| Cc1nc(-c2cc(F)ccc2C(=O)N2C[C@H](Oc3nccc4c3C(=O)OC4(C)C)CC[C@H]2C)no1 [Example 15, 4-{[(3R,6R)-1-{[4-fluoro-2-(5-methyl-1,2,4-oxadiazol-3-yl)phenyl]carbonyl}-6-methylpiperidin-3-yl]oxy}-1,1-dimethylfuro[3,4-c]pyridin-3(1H)-one] | 6.63 | 5.00 |
| Cc1nc(-c2c(F)cccc2C(=O)N2C[C@H](Oc3nccc4c3C(=O)OC4(C)C)CC[C@H]2C)no1 [Example 16, 4-{[(3R,6R)-1-{[3-fluoro-2-(5-methyl-1,2,4-oxadiazol-3-yl)phenyl]carbonyl}-6-methylpiperidin-3-yl]oxy}-1,1-dimethylfuro[3,4-c]pyridin-3(1H)-one] | 7.05 | 5.00 |
| C[C@@H]1CC[C@@H](Nc2nccc3c2C(=O)OC3(C)C)CN1C(=O)c1ccccc1-n1nccn1 [Example 39, 1,1-Dimethyl-4-{[(3R,6R)-6-methyl-1-{[2-(2H-1,2,3-triazol-2-yl)phenyl]carbonyl}piperidin-3-yl]amino}furo[3,4-c]pyridin-3(1H)-one] | 7.31 | 5.23 |
| C[C@@H]1CC[C@@H](Oc2nccc3c2COC3=O)CN1C(=O)c1ccsc1-n1nccn1 [Example 29, 4-{[(3R,6R)-6-methyl-1-{[2-(2H-1,2,3-triazol-2-yl)thiophen-3-yl]carbonyl}piperidin-3-yl]oxy}furo[3,4-c]pyridin-1(3H)-one] | 7.80 | 5.50 |
